Data: patent US8822451B2, “Modulators of ATP-binding cassette transporters” (Vertex Pharmaceuticals Incorporated, priority 2005, dated 2014)

Target: T1, […]F508-CFTR (Homo sapiens, UniProt P13569, DEL508-508)
T1 construct: expressed in transfected cells
Assay: Assay results of Table 3: ΔF508-CFTR modulation, membrane potential optical assay (assay format not stated)
Assay type: cell-based
Conditions: NIH3T3 mouse fibroblasts stably expressing […]F508-CFTR (optical assays); for Efficacy: efficacy range; for EC50: potency range
From the text: A. Membrane Potential Optical Methods for Assaying […]F508-CFTR Modulation Properties of Compounds
The optical membrane potential assay utilized voltage-sensitive FRET sensors described by Gonzalez and Tsien (See, Gonzalez, J. E. and R. Y. Tsien (1995) “Voltage sensing by fluorescence resonance energy transfer in single cells” Biophys J 69(4): 1272-80, and Gonzalez, J. E. and R. Y. Tsien (1997) “Improved indicators of cell membrane potential that use fluorescence resonance energy transfer” Chem Biol 4(4): 269-77) in combination with instrumentation for measuring fluorescence changes such as the Voltage/Ion Probe Reader (VIPR) (See, Gonzalez, J. E., K. Oades, et al. (1999) “Cell-based assays and instrumentation for screening ion-channel targets” Drug Discov Today 4(9): 431-439).
These voltage sensitive assays are based on the change in fluorescence resonant energy transfer (FRET) between the membrane-soluble, voltage-sensitive dye, DiSBAC2(3), and a fluorescent phospholipid, CC2-DMPE, which is attached to the outer leaflet of the plasma membrane and acts as a FRET donor. Changes in membrane potential (Vm) cause the negatively charged DiSBAC2(3) to redistribute across the plasma membrane and the amount of energy transfer from CC2-DMPE changes accordingly. The changes in fluorescence emission were monitored using VIPR™ II, which is an integrated liquid handler and fluorescent detector designed to conduct cell-based screens in 96- or 384-well microtiter plates.
To identify small molecules that correct the trafficking defect associated with ΔF508-CFTR; a single-addition HTS assay format was developed. The cells were incubated in serum-free medium for 16 hrs at 37° C. in the presence or absence (negative control) of test compound. As a positive control, cells plated in 384-well plates were incubated for 16 hrs at 27° C. to “temperature-correct” […]F508-CFTR. The cells were subsequently rinsed 3× with Krebs Ringers solution and loaded with the voltage-sensitive dyes. To activate […]F508-CFTR, 10 µM forskolin and the CFTR potentiator, genistein (20 µM), were added along with Cl^−-free medium to each well. The addition of Cl^−-free medium promoted Cl^− efflux in response to […]F508-CFTR activation and the resulting membrane depolarization was optically monitored using the FRET-based voltage-sensor dyes.
To identify potentiators of […]F508-CFTR, a double-addition HTS assay format was developed. During the first addition, a Cl^−-free medium with or without test compound was added to each well. After 22 sec, a second addition of Cl^−-free medium containing 2-10 µM forskolin was added to activate […]F508-CFTR. The extracellular Cl^− concentration following both additions was 28 mM, which promoted Cl^− efflux in response to […]F508-CFTR activation and the resulting membrane depolarization was optically monitored using the FRET-based voltage-sensor dyes.
Bath Solution #1: (in mM) NaCl 160, KCl 4.5, CaCl2 2, MgCl2 1, HEPES 10, pH 7.4 with NaOH.
Chloride-free bath solution: Chloride salts in Bath Solution #1 are substituted with gluconate salts.
CC2-DMPE: Prepared as a 10 mM stock solution in DMSO and stored at −20° C.
DiSBAC2(3): Prepared as a 10 mM stock in DMSO and stored at −20° C.
NIH3T3 mouse fibroblasts stably expressing […]F508-CFTR are used for optical measurements of membrane potential. The cells are maintained at 37° C. in 5% CO2 and 90% humidity in Dulbecco's modified Eagle's medium supplemented with 2 mM glutamine, 10% fetal bovine serum, 1× NEAA, […]-ME, 1× pen/strep, and 25 mM HEPES in 175 cm^2 culture flasks. For all optical assays, the cells were seeded at 30,000/well in 384-well matrigel-coated plates and cultured for 2 hrs at 37° C. before culturing at 27° C. for 24 hrs for the potentiator assay. For the correction assays, the cells are cultured at 27° C. or 37° C. with and without compounds for 16-24 hoursB.

T1 sequence (P13569 with tags, fused parts or gaps DEL508-508): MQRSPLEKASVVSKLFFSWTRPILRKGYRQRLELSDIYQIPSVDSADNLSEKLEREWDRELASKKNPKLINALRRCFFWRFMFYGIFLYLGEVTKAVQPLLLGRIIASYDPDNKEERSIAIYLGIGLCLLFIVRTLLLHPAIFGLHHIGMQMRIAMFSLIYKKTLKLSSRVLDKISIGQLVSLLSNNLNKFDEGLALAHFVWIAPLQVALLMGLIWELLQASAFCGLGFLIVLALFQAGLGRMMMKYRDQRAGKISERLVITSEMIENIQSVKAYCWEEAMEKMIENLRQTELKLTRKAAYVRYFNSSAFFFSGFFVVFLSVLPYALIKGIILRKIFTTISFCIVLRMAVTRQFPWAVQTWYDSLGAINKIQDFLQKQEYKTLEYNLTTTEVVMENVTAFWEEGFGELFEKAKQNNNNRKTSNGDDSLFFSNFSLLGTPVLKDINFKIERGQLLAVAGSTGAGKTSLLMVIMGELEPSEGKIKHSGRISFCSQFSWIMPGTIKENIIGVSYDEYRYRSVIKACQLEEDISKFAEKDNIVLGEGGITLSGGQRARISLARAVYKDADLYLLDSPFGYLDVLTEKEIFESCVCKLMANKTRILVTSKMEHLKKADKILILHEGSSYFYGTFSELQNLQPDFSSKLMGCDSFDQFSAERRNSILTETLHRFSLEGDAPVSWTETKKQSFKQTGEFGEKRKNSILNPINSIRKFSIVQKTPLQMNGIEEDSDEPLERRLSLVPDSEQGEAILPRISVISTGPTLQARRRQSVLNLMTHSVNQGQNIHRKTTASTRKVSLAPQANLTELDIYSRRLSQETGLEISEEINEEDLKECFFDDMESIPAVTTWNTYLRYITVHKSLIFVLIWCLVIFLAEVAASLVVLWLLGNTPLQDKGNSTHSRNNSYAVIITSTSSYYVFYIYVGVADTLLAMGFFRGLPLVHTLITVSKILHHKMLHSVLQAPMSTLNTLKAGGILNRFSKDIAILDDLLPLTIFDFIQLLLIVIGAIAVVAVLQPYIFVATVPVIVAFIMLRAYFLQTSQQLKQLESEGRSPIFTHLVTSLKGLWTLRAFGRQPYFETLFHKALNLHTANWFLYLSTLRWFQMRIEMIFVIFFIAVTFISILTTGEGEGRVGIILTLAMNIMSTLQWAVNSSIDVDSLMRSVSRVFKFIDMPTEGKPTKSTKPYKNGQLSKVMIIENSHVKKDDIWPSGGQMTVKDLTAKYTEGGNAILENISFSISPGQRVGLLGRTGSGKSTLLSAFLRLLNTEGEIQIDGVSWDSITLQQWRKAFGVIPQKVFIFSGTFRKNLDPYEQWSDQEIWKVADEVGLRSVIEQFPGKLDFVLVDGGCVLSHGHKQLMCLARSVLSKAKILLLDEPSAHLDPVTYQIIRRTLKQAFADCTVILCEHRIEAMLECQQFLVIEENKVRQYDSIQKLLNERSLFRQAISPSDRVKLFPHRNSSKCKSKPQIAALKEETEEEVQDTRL

EC50 [µM] | SMILES | Efficacy
1 to 5 | CCN(CC)C(=O)c1cc(-c2ccccc2)nc(N(CC)CC)n1 [Compound 141] | ++ (++ corresponds to Efficacy between 100 and 50)
> 5 | CNC(=O)c1cc(-c2ccccc2)nc(N2CC=CCC2)n1 [Compound 153] | ++ (++ corresponds to Efficacy between 100 and 50)
< 1 | CCN(CC)c1nc(C(N)=O)cc(-c2cc(Cl)ccc2OC)n1 [Compound 12] | ++ (++ corresponds to Efficacy between 100 and 50)
> 5 | CCN(CCO)c1nc(C(N)=O)cc(-c2ccccc2OC)n1 [Compound 228] | ++ (++ corresponds to Efficacy between 100 and 50)
< 1 | CCN(CC)c1nc(C(N)=O)cc(-c2csc3ccccc23)n1 [Compound 214] | ++ (++ corresponds to Efficacy between 100 and 50)
1 to 5 | CCOc1cccc(-c2cc(C(N)=O)nc(N3CCCCC3)n2)c1 [Compound 194] | +++ (+++ corresponds to Efficacy greater than 100)
1 to 5 | NC(=O)c1cc(-c2ccccc2)nc(N2CCCCCC2)n1 [Compound 68] | ++ (++ corresponds to Efficacy between 100 and 50)
> 5 | NC(=O)c1cc(-c2ccccc2)nc(-n2ccnc2)n1 [Compound 58] | + (+ corresponds to Efficacy less than 50)
> 5 | NC(=O)c1cc(-c2cccc(F)c2)nc(N2CCCCC2)n1 [Compound 122] | +++ (+++ corresponds to Efficacy greater than 100)
1 to 5 | NC(=O)c1cc(-c2ccccc2)nc(N2CCCC2)n1 [Compound 26] | ++ (++ corresponds to Efficacy between 100 and 50)
> 5 | NC(=O)c1cc(-c2ccccc2)nc(N2CCCC(CO)C2)n1 (centres unmarked) [Compound 43] | + (+ corresponds to Efficacy less than 50)
< 1 | CCN(CC)c1nc(C(N)=O)cc(-c2cc(C)cs2)n1 [Compound 66] | +++ (+++ corresponds to Efficacy greater than 100)
> 5 | CCCCN(CC#N)c1nc(C(N)=O)cc(-c2ccccc2)n1 [Compound 13] | ++ (++ corresponds to Efficacy between 100 and 50)
1 to 5 | CCN(CC)c1nc(C(N)=O)cc(-c2ccc(C)c(C)c2)n1 [Compound 207] | +++ (+++ corresponds to Efficacy greater than 100)
1 to 5 | CCCCCCN(C)c1nc(C(N)=O)cc(-c2ccccc2)n1 [Compound 201] | +++ (+++ corresponds to Efficacy greater than 100)
> 5 | CC1CCCN(c2nc(C(N)=O)cc(-c3ccccc3)n2)C1 (centres unmarked) [Compound 149] | ++ (++ corresponds to Efficacy between 100 and 50)
> 5 | CNC(=O)c1cc(-c2ccccc2)nc(NCC2CC2)n1 [Compound 41] | + (+ corresponds to Efficacy less than 50)
> 5 | CN(C)C(=O)c1cc(-c2ccccc2)nc(NCc2ccco2)n1 [Compound 128] | + (+ corresponds to Efficacy less than 50)
< 1 | CCN(CC)c1nc(C(N)=O)cc(-c2cccc(Cl)c2)n1 [Compound 98] | +++ (+++ corresponds to Efficacy greater than 100)
> 5 | COc1ccc(-c2cc(C(N)=O)nc(N3CCCCC3)n2)cc1 [Compound 142] | ++ (++ corresponds to Efficacy between 100 and 50)
> 5 | CCN(CC)c1nc(C(=O)N(C)C)cc(-c2ccccc2)n1 [Compound 117] | +++ (+++ corresponds to Efficacy greater than 100)
> 5 | COc1cccc(-c2cc(C(N)=O)nc(N3CC=CCC3)n2)c1 [Compound 15] | ++ (++ corresponds to Efficacy between 100 and 50)

EC50 [µM] | SMILES | Efficacy
1 to 5 | CCN(CC)c1nc(C(N)=O)cc(-c2ccc(C(=O)OC)cc2)n1 [Compound 223] | +++ (+++ corresponds to Efficacy greater than 100)
> 5 | CCNc1nc(C(N)=O)cc(-c2ccccc2)n1 [Compound 215] | ++ (++ corresponds to Efficacy between 100 and 50)
> 5 | Cc1cccc(-c2cc(C(N)=O)nc(N3CCCCC3)n2)c1 [Compound 32] | ++ (++ corresponds to Efficacy between 100 and 50)
1 to 5 | CCNC(=O)c1cc(-c2ccccc2)nc(N(CC)CC)n1 [Compound 91] | +++ (+++ corresponds to Efficacy greater than 100)
> 5 | CCN(CC)c1nc(C(N)=O)cc(-c2cccc(CO)c2)n1 [Compound 158] | ++ (++ corresponds to Efficacy between 100 and 50)
> 5 | NC(=O)c1cc(-c2ccccc2)nc(CC2CCCCC2)n1 [Compound 136] | ++ (++ corresponds to Efficacy between 100 and 50)
> 5 | CCN(CCO)c1nc(C(N)=O)cc(-c2cccc(OC)c2)n1 [Compound 123] | + (+ corresponds to Efficacy less than 50)
1 to 5 | CCOc1ccccc1-c1cc(C(N)=O)nc(N2CCCCC2)n1 [Compound 127] | ++ (++ corresponds to Efficacy between 100 and 50)
> 5 | CCN(CCO)c1nc(C(N)=O)cc(-c2ccccc2)n1 [Compound 4] | +++ (+++ corresponds to Efficacy greater than 100)
> 5 | NC(=O)c1cc(-c2ccccc2)nc(N2CCOCC2)n1 [Compound 167] | ++ (++ corresponds to Efficacy between 100 and 50)
1 to 5 | CC(C)CN(CC(C)C)c1nc(C(N)=O)cc(-c2ccccc2)n1 [Compound 196] | + (+ corresponds to Efficacy less than 50)
1 to 5 | CCN(CCc1ccccn1)c1nc(C(N)=O)cc(-c2ccccc2)n1 [Compound 218] | +++ (+++ corresponds to Efficacy greater than 100)
> 5 | NC(=O)c1cc(-c2ccccc2)nc(N2CC=C(c3ccc(Cl)cc3)CC2)n1 [Compound 3] | ++ (++ corresponds to Efficacy between 100 and 50)
1 to 5 | NC(=O)c1cc(-c2ccccc2C(F)(F)F)nc(N2CCCCC2)n1 [Compound 72] | ++ (++ corresponds to Efficacy between 100 and 50)
> 5 | COc1ccc(C2(CNc3nc(C(N)=O)cc(-c4ccccc4)n3)CC2)cc1OC [Compound 132] | +++ (+++ corresponds to Efficacy greater than 100)
1 to 5 | CCN(CC)c1nc(C(N)=O)cc(-c2cc3ccccc3s2)n1 [Compound 81] | +++ (+++ corresponds to Efficacy greater than 100)
< 1 | CCN(CC)c1nc(C(N)=O)cc(-c2ccc(OC(F)(F)F)cc2)n1 [Compound 29] | ++ (++ corresponds to Efficacy between 100 and 50)
> 5 | NC(=O)c1cc(-c2ccccc2)nc(N2CCC(C(=O)c3ccc(F)cc3)CC2)n1 [Compound 60] | ++ (++ corresponds to Efficacy between 100 and 50)
1 to 5 | NC(=O)c1cc(-c2cccc(OC(F)(F)F)c2)nc(N2CCCCC2)n1 [Compound 213] | + (+ corresponds to Efficacy less than 50)
> 5 | CC(C)CNc1nc(C(N)=O)cc(-c2ccccc2)n1 [Compound 51] | ++ (++ corresponds to Efficacy between 100 and 50)
< 1 | CCN(CC)c1nc(C(N)=O)cc(-c2ccc(Cl)cc2Cl)n1 [Compound 200] | ++ (++ corresponds to Efficacy between 100 and 50)
